A short description of assay [1]: miR-122 activators in hepatoma reporter cells, dose response, cell-based, Huh7 psiCHECK-miR122, Renilla luciferase, cherry-picked (AID 651956).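 Note: huh7 hepatoma cells stably carrying a psiCHECK-2 miR-122 sensor plasmid; renilla luciferase signal reporting endogenous miR-122 activity after 48 h compound exposure.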 Type of assay: functional.
For assay [2], the target named is Dual specificity protein phosphatase 3 (Homo sapiens, UniProt P51452). Briefly: VHR phosphatase inhibition, dose response, selectivity assay for STEP inhibitor project, biochemical (AID 602374). Particulars: read-out: IC50_Mean. The class given is functional.
Chain of Dual specificity protein phosphatase 3 (P51452 whole entry): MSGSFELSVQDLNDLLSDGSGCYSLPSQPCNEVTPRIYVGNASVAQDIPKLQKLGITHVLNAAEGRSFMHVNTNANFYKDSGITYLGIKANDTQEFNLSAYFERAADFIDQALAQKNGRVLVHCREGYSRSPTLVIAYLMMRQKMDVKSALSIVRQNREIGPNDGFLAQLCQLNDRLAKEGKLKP
Assay [3] has as its target T1, Tyrosine-protein phosphatase non-receptor type 5 (Homo sapiens, UniProt P54829).
T1 sequence (P54829 whole entry): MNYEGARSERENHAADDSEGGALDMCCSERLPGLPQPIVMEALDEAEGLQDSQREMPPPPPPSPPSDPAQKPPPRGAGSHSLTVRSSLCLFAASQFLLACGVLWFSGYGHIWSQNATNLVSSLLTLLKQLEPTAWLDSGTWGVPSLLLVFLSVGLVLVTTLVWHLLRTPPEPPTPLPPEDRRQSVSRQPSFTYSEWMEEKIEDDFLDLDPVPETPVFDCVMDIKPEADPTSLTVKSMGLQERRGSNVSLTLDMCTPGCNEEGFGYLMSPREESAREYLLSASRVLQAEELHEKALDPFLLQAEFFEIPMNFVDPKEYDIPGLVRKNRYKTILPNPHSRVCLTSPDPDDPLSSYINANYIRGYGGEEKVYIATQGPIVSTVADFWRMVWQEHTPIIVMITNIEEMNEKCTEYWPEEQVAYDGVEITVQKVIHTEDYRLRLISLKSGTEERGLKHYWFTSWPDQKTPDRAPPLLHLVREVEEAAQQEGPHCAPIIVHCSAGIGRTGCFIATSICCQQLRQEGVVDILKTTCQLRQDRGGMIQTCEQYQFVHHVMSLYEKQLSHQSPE
Nature of the assay: STEP phosphatase inhibitors, confirmation, biochemical, fluorescence intensity, uHTS hits (AID 602372). The class given is functional. Particulars: read-out: IC50_Mean.

Assay [4] has as its target T2, Low molecular weight phosphotyrosine protein phosphatase (Homo sapiens, UniProt P24666).
T2 sequence (P24666 whole entry): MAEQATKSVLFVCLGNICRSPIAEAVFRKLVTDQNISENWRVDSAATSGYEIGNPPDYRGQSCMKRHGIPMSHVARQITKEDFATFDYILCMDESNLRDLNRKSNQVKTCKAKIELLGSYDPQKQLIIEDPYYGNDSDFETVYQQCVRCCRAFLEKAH
Type of assay: functional. Particulars: read-out: IC50_Mean.

Assay [5] has as its target T3, Tyrosine-protein phosphatase non-receptor type 11 (Homo sapiens, UniProt Q06124).
T3 sequence (Q06124 whole entry): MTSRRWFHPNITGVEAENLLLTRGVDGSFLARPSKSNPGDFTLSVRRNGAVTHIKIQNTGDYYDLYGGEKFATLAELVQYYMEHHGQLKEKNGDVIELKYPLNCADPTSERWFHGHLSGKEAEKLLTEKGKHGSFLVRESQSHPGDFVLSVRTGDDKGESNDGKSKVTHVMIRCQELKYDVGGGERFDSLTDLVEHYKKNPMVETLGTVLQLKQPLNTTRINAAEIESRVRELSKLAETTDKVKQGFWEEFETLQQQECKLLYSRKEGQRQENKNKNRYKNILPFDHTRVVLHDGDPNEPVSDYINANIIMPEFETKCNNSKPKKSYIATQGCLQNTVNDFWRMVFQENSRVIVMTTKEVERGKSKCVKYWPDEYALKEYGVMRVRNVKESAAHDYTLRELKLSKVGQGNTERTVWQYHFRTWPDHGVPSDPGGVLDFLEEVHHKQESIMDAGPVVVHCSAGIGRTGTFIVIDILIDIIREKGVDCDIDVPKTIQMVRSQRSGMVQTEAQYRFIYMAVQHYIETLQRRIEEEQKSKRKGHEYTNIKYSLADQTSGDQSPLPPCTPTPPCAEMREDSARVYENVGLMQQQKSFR
Nature of the assay: SHP2 phosphatase inhibition, dose response, selectivity assay for STEP inhibitor project, biochemical (AID 602367). The class given is functional. The settings on record: read-out: IC50_Mean.

The nature of assay [6]: THP-1 cell cytotoxicity, dose response, cytotoxicity control for Vif-APOBEC3G degradation inhibitor project, THP-1 cells (AID 1117359). Type of assay: functional. The settings on record: Human immunodeficiency virus 1, THP-1.
The target in assay [7] is T2, Low molecular weight phosphotyrosine protein phosphatase. The class given is functional. The settings on record: read-out: IC50_Mean. This is another data set of the same source.
In assay [8] the target is T4, Small ubiquitin-related modifier 1 (Homo sapiens, UniProt P63165). Nature of the assay: inhibitors of SUMO1 peptide binding, dose response, biochemical, fluorescence polarization, uHTS hits (AID 624382). Type of assay: functional. The settings on record: read-out: IC50_Mean.
T4 sequence (P63165 whole entry): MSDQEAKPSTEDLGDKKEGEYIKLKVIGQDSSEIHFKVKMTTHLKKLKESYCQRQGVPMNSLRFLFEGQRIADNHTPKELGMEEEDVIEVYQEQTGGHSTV
In assay [9] the target is T5, Voltage-gated N-type calcium channel alpha-1B subunit/Amyloid beta A4 precursor protein-binding family A member 1 (Homo sapiens, UniProt Q00975+Q02410). The class given is protein assay.
T5 sequence (Q00975 whole entry): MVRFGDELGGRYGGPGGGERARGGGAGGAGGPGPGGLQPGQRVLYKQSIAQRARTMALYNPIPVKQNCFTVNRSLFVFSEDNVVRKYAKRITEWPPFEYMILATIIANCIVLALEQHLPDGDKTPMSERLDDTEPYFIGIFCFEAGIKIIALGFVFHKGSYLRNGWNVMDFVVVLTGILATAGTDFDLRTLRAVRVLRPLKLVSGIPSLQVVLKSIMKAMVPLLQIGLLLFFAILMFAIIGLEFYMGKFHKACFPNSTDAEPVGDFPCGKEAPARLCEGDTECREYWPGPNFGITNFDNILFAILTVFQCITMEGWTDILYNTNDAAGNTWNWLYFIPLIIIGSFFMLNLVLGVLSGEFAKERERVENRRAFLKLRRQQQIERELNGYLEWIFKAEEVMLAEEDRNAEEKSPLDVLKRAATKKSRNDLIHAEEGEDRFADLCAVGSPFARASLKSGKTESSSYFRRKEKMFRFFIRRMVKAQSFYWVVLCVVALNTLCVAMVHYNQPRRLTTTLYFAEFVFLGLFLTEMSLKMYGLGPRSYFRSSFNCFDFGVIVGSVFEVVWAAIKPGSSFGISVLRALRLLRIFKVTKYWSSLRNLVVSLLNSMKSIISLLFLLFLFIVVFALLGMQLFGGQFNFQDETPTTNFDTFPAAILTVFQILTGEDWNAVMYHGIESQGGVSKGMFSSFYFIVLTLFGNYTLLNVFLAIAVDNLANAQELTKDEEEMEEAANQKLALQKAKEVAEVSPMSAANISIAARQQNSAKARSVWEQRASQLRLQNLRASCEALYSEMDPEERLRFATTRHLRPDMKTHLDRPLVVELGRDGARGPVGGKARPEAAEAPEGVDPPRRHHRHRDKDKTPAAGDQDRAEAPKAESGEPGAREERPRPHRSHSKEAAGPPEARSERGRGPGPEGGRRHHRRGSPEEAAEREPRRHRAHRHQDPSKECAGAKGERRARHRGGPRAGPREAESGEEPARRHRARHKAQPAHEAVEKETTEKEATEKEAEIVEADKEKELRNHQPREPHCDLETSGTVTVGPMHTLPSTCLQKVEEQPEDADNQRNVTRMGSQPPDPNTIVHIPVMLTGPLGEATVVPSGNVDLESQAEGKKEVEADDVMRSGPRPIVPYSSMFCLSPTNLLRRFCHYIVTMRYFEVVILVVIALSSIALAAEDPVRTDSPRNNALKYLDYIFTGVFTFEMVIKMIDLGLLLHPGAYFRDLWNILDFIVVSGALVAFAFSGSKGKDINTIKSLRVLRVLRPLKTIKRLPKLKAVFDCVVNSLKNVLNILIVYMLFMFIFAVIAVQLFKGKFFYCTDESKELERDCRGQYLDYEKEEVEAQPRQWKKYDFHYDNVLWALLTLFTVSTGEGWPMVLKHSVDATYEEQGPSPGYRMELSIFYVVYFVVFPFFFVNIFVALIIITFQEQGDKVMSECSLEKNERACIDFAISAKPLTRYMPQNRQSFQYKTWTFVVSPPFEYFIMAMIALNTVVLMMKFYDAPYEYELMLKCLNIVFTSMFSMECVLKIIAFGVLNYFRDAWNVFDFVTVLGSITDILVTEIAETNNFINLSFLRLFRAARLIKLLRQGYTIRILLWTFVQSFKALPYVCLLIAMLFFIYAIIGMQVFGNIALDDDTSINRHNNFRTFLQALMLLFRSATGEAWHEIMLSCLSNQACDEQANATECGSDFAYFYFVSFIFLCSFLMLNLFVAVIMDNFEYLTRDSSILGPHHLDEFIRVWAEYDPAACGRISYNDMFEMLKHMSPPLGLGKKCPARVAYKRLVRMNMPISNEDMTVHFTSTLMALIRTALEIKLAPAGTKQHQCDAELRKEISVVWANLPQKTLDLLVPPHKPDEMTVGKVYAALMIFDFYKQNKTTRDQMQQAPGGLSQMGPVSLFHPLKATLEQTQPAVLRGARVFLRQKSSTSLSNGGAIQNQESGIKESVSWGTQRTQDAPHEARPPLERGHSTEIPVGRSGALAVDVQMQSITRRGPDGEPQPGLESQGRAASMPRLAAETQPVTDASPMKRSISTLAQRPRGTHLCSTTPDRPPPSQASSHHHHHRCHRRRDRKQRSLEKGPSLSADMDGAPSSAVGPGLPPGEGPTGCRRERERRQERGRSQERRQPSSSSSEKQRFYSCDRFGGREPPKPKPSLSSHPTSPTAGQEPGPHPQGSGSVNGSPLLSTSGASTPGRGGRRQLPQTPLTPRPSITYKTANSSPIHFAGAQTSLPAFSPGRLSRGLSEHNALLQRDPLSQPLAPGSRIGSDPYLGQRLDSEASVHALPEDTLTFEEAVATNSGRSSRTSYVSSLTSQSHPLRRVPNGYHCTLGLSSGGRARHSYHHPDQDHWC
T5 sequence (Q02410 whole entry): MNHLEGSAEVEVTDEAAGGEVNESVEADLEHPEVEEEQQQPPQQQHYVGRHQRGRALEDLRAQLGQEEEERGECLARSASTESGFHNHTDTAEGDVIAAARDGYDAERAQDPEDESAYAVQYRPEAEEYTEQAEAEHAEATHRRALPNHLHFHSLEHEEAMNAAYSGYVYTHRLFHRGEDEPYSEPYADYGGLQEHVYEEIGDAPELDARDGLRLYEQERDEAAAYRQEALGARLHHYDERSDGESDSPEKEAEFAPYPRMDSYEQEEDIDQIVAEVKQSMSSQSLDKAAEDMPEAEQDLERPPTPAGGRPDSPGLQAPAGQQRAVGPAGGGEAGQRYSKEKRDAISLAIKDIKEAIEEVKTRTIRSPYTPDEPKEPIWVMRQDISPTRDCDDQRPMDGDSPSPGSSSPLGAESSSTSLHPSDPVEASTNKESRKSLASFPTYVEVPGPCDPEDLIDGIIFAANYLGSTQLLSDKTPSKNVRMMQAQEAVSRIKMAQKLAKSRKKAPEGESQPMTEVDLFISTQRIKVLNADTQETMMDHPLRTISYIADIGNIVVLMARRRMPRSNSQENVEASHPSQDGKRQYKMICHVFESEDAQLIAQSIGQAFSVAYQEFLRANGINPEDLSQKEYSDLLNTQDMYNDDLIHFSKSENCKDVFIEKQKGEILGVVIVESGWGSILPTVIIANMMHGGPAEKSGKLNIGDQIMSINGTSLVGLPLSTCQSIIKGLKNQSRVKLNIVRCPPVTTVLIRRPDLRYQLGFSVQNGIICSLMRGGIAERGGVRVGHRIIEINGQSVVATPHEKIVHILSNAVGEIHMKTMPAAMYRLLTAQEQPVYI
Assay [10] concerns the target T4, Small ubiquitin-related modifier 1. Nature of the assay: inhibitors of SUMO1 partner interactions, dose response, biochemical, FRET (AID 624383). Type of assay: functional. Particulars: read-out: IC50_Mean.
Assay [11] concerns the target T5, Voltage-gated N-type calcium channel alpha-1B subunit/Amyloid beta A4 precursor protein-binding family A member 1. The class given is protein assay. This is another data set of the same source.
For assay [12], the target named is T6, Carboxy-terminal domain RNA polymerase II polypeptide A small phosphatase 1 (Homo sapiens, UniProt Q9GZU7).
T6 sequence (Q9GZU7 whole entry): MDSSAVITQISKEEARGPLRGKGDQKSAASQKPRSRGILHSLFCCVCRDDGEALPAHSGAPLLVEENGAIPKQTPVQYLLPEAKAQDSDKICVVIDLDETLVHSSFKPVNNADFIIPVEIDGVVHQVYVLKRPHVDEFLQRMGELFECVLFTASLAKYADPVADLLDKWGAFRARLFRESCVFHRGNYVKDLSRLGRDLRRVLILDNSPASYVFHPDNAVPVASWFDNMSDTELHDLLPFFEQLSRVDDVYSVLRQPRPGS
Briefly: inhibitors of CTDSP1, concentration-response testing, biochemical assay, absorbance-based, actives from ultra-high-throughput screening (AID 540297). Type of assay: functional.

The nature of assay [13]: HeLa cell cytotoxicity, dose response, cytotoxicity control for MgcRacGAP inhibitor project (AID 624300). Type of assay: functional.
A further assay has as its system INS1. Nature of the assay: beta cell apoptosis inhibitors, cytokine rescue, dose response, luminescence, retest (AID 449756).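 Note: cell death triggered by IL-1 beta plus TNF-alpha plus IFN-gamma mixture; protective hits raise ATP signal compared with cytokine alone wells.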 Type of assay: functional, cell-based. The settings on record: Rattus norvegicus.
Assay [14] concerns the target T7, Rac GTPase-activating protein 1 (Homo sapiens, UniProt Q9H0H5).
T7 sequence (Q9H0H5 whole entry): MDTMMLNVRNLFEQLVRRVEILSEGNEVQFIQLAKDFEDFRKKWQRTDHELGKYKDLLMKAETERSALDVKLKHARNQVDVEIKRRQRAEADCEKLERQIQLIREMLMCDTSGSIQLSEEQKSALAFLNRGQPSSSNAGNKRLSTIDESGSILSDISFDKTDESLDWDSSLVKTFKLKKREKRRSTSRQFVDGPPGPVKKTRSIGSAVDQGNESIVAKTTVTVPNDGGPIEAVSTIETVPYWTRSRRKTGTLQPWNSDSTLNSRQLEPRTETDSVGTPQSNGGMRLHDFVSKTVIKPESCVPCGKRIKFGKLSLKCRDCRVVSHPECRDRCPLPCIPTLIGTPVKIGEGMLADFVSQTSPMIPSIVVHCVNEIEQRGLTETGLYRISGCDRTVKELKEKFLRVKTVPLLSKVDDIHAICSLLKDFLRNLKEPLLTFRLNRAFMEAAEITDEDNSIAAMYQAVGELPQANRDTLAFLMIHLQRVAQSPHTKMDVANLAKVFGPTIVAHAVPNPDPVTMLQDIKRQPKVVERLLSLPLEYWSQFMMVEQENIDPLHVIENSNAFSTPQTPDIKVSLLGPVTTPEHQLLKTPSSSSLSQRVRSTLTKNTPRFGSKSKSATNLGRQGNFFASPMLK
Briefly: MgcRacGAP GTPase-activating activity inhibitors, confirmation, biochemical, ADP Hunter fluorescence, primary and confirmatory (AID 624330). The class given is functional.

Assay [15] addresses T8, Microphthalmia-associated transcription factor (Homo sapiens, UniProt O75030).
T8 sequence (O75030 whole entry): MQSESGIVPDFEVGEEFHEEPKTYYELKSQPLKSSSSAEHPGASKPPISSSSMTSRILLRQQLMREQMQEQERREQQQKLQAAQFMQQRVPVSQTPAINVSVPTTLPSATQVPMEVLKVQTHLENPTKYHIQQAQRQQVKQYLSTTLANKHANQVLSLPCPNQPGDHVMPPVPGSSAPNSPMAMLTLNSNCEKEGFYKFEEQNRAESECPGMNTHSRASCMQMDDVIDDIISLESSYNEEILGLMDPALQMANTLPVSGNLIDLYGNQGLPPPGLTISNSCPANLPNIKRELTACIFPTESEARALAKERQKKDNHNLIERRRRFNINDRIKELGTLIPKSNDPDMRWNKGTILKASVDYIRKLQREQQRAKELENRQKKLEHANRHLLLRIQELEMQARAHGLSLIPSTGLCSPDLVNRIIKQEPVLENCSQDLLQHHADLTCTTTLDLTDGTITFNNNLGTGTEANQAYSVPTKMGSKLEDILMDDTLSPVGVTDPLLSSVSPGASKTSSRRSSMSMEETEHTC
Briefly: TRPM1 promoter luciferase signal decrease, dose response, MITF inhibitor project, cell-based, SK-MEL-5, cherry-picked, set 3 (AID 493073).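 Note: SK-MEL-5 melanoma cells with luciferase driven by the MITF target TRPM1 promoter.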 The class given is functional.

A short description of assay [16]: Luminescence Cell-Based Dose Retest to Confirm Inhibitors of Cancer Stem Cells. [Related pubchem assays (depositor defined):AID2717, AID2721]. Type of assay: functional. The settings on record: Homo sapiens.
The nature of assay [17]: Fluorescence-based cell-based high throughput dose response assay for inhibitors of the interaction of nucleotide-binding oligomerization domain containing 2 (NOD2) and the receptor-interacting serine-threonine kinase 2 (RIPK2). The settings on record: Homo sapiens. Type of assay: functional.

The source made the active and inactive calls. Bounds are passed on as bounds.

The results in this text go back to ChEMBL document CHEMBL1201862, “PubChem BioAssay data set” (2004).

For orientation: AC50 means the concentration giving half of the maximal activity seen. With `C[C@@H]1CN([C@H](C)CO)S(=O)(=O)c2ccc(C#CC3(O)CCCC3)cc2O[C@@H]1CN(C)C(=O)c1cccnc1`, in assay [1], the AC50 is 9.98 µM (active).

Broadly, the CC50 is the concentration giving 50% cytotoxicity. As for `NN=C1C(Cl)=C(Cl)C(Cl)=C1Cl`, the IC50 in [2] was 1.99 µM (active); in assay [3], > 80 µM (inactive); in assay [4] it was 38.7 µM (inactive); in assay [5], 1.45 µM (active); in assay [7], 7.19 µM (active). The CC50 in [6] is > 40 µM (active).

Regarding `C=Cc1ccc(C(=O)N2CCCC(CCC(=O)N3CCN(c4ccccn4)CC3)C2)cc1` (stereo unspecified), the IC50 is > 66.6 µM (inactive) in assay [8]; 8.01 µM (active) in assay [9]; 20.8 µM (inactive) in [10]; > 50 µM (inactive) in [11]; 22.2 µM (active) in [12].

Turning to `COc1ccc(Br)cc1CN1CCN(Cc2c[nH]c3ccccc23)CC1`, the CC50 in [13] was 79.4 µM (active). The AC50 with INS1 was 6.6 µM (active). Further, the IC50 in [14] was 86 µM (active).

On to `O=C(N/N=C/c1ccc(OC(=O)c2ccc3c(c2)OCO3)cc1)c1cncc(Br)c1`, for which the IC50 in assay [4] was 1.82 µM (active); in [12], 1.8 µM (active); in assay [7], 6.29 µM (active).

With `O=C(/C=C/c1ccc(Cl)c([N+](=O)[O-])c1)c1ccc(O)cc1`, the AC50 in [15] is 17.4 µM (active); in assay [16], 4.36 µM (active). The IC50 in assay [17] was 7.04 µM (active).

`CCOc1cc(/C=C(/C#N)C(=O)Nc2ccc(OC)cc2)ccc1OCc1ccc(C(=O)O)cc1`: the IC50 in [9] was 13.1 µM (active); in assay [4] it was 9.46 µM (active); in assay [11], > 50 µM (inactive); in assay [7] it was 6.48 µM (active).

For `COCC(=O)N(C)C[C@H]1Oc2cc(C#Cc3cccnc3)ccc2S(=O)(=O)N([C@@H](C)CO)C[C@H]1C`, the AC50 in [1] is 1.09 µM (active).
